Source: the supplement of paper PMC10307832

Assays:
Experiment in all cases: relative viability (nuclei count vs DMSO), 5 days (fraction); higher = more cells survive
[1] = compound: CC1=CC=C(C=C1)C(=O)CN2C3=C(CCCC3)SC2=N [Pifithrin_alpha] + Cc1nc(Nc2ncc(C(=O)Nc3c(C)cccc3Cl)s2)cc(N2CCN(CCO)CC2)n1 [Dasatinib] (partner 0.075 µM)
How it was run: (§1)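 Dosing by pin tool came one day after lung cancer cell lines were seeded in 1536-well plates, using either one drug or a fixed anchor-drug dose plus five library-drug doses (not always all listed) in √10 steps. After 5 days, nuclei were counted on 4× images. Relative viability is treated-well nuclei count divided by vehicle-well nuclei count, and values are medians of duplicate plates.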

Axitinib + Palbociclib = compound: CNC(=O)c1ccccc1Sc1ccc2c(/C=C/c3ccccn3)n[nH]c2c1 [Axitinib] + CC(=O)c1c(C)c2cnc(Nc3ccc(N4CCNCC4)cn3)nc2n(C2CCCC2)c1=O [Palbociclib] (partner 0.5 µM)
How it was run: as §1

Axitinib + Navitoclax = compound: CNC(=O)c1ccccc1Sc1ccc2c(/C=C/c3ccccn3)n[nH]c2c1 [Axitinib] + CC1(C)CCC(c2ccc(Cl)cc2)=C(CN2CCN(c3ccc(C(=O)NS(=O)(=O)c4ccc(N[C@H](CCN5CCOCC5)CSc5ccccc5)c(S(=O)(=O)C(F)(F)F)c4)cc3)CC2)C1 [Navitoclax] (partner 0.5 µM)
How it was run: as §1

Bemcentinib + AZD7762 = compound: Nc1nc(Nc2ccc3c(c2)CC[C@@H](N2CCCC2)CC3)nn1-c1cc2c(nn1)-c1ccccc1CCC2 [Bemcentinib] + NC(=O)Nc1cc(-c2cccc(F)c2)sc1C(=O)N[C@H]1CCCNC1 [AZD7762] (partner 0.2 µM)
How it was run: as §1

Cell Line	relative viability ([1]; first compound 3.162 µM)	relative viability ([1]; first compound 10 µM)	relative viability ([1]; first compound 31.62 µM)	relative viability ([1]; first compound 100 µM)	relative viability (Axitinib + Palbociclib; first compound 0.005 µM)	relative viability (Axitinib + Palbociclib; first compound 0.01581 µM)	relative viability (Axitinib + Palbociclib; first compound 0.05 µM)	relative viability (Axitinib + Palbociclib; first compound 0.1581 µM)	relative viability (Axitinib + Palbociclib; first compound 0.5 µM)	relative viability (Axitinib + Navitoclax; first compound 0.005 µM)	relative viability (Axitinib + Navitoclax; first compound 0.01581 µM)	relative viability (Axitinib + Navitoclax; first compound 0.05 µM)	relative viability (Axitinib + Navitoclax; first compound 0.1581 µM)	relative viability (Axitinib + Navitoclax; first compound 0.5 µM)	relative viability (Bemcentinib + AZD7762; first compound 0.04 µM)	relative viability (Bemcentinib + AZD7762; first compound 0.1265 µM)	relative viability (Bemcentinib + AZD7762; first compound 0.4 µM)	relative viability (Bemcentinib + AZD7762; first compound 1.265 µM)	relative viability (Bemcentinib + AZD7762; first compound 4 µM)	relative viability ([1]; first compound 1 µM)
NCI-H1650	0.242	0.246	0.25	0.212	0.423	0.322	0.412	0.313	0.486	1.27	0.981	1.35	1.24	1.41	–	–	–	–	–	–
NCI-H1703	–	–	–	–	–	–	–	–	–	0.868	0.36	0.306	0.212	0.305	0.109	0.121	0.145	0.16	0.134	–
NCI-H2009	0.293	0.301	0.186	0.244	0.257	0.295	0.203	0.233	0.255	1.19	1.19	1.17	1.18	1.23	–	–	–	–	–	0.316
NCI-H2023	0.324	0.348	–	0.275	0.393	0.447	0.363	0.34	0.412	1.05	1.01	0.874	0.94	1.01	–	–	–	–	–	0.432
NCI-H2228	0.471	0.421	0.425	0.363	0.926	0.664	0.615	0.614	0.882	0.698	0.893	0.847	0.99	1.19	–	–	–	–	–	0.516
NCI-H2342	0.316	0.317	0.31	0.31	0.503	0.524	0.536	0.614	0.485	–	–	–	–	–	0.415	0.516	0.472	0.52	0.493	0.255
SK-LU-1	0.193	0.181	–	0.168	0.433	0.406	0.38	0.368	0.355	0.955	1.2	0.932	0.812	1.13	–	–	–	–	–	0.175
SK-MES-1	0.237	0.264	0.228	0.268	0.309	0.332	0.347	0.344	0.353	1.32	1.2	1.32	1.25	1.51	–	–	–	–	–	0.344
SW 900	0.487	0.318	0.349	0.307	0.629	–	0.587	0.502	0.6	–	–	–	–	–	0.559	0.65	0.689	0.552	0.538	0.366
SW 1573	0.513	0.602	0.36	0.577	0.36	0.448	0.395	0.384	0.473	0.914	1.03	1.05	0.852	0.904	–	–	–	–	–	0.616
UMC-11	0.656	0.514	0.436	0.638	0.316	0.318	0.313	0.302	0.311	0.322	0.305	0.282	0.347	0.294	–	–	–	–	–	0.465
